Laboratory results from article PMC5187951 (International Journal of Molecular Sciences, 2016).

Legend:
[1] = tested on: platelet aggregation of rat platelet rich plasma induced by ADP or collagen; assay: Ex vivo antiplatelet aggregation activity; type: in vivo, Sprague-Dawley (SD) rats; conditions: 100 mg/kg orally, blood 90 min after dosing, ADP 1.3 µmol/L or collagen 32.8 µg/mL; ASA 50 mg/kg positive control
Protocol: The antiplatelet activity of synthesized mutual prodrugs 5a–c was investigated by following the already reported method with some modifications. Male Sprague-Dawley (SD) rats weighing 320–350 g were used after overnight fasting. Rats were orally administered via gastric tube 100 mg/kg of prodrugs solution or 50 mg/kg of acetyl salicylic acid (ASA) suspended in 0.5% carboxymethyl cellulose (CMC) solution. Blood was collected 90 min after sample administration and platelet-rich plasma (PRP) was prepared by centrifugation of blood at 120× g for 15 min and further centrifuged at 850× g for 15 min to prepare platelet-poor plasma (PPP). Platelet aggregation was induced by 32.8 µg/mL of collagen or 1.3 µmol/L of adenosine diphosphate (ADP) in 300 µL of PRP. The PRP (300 µL) was incubated at 37 °C for 2 min in the aggregometer with stirring at 1000 rpm and then stimulated with ADP, collagen, epinephrine and A23187. The changes in light transmission were recorded for 5 min after stimulation. The synthesized mutual prodrugs 5a–c were added to the platelet suspension 3 min before the addition of the aggregating agents. The extent of inhibition of platelet aggregation is expressed as percent inhibition (X) using the following formula: (3) X=((A−B)/A)×100 where A = maximal aggregation of the control; and B = maximal aggregation of sample-treated PRP.

[2] = tested on: acetic acid induced writhing in mice; assay: Acetic acid induced writhing in mice; type: in vivo; conditions: 20 mg/kg p.o.; for No. of Writhing, Mean ± SEM: 0.6% acetic acid, counted up to 15 min; for Percentage inhibition of writhing: vs control
Protocol: Koster et al., reported method was adopted for the determination of analgesic activity of the mutual prodrugs 5a–c. The mice were divided in to five groups each group consists of five animals. […] For induction of writhings, acetic acid solution (0.6% in normal saline) was given to every mouse post 30 min of treatment. After 5 min of injection of this solution, the number of writhings was counted up to 15 min.

[3] = tested on: carrageenan induced paw edema in mice; assay: Carrageenan induced paw edema in mice; type: in vivo; conditions: 20 mg/kg p.o.; for Inflammation at 1 h (paw thickness), Mean ± SEM / Percent inhibition of paw edema at 1 h: 1 h after carrageenan; for Percent inhibition of paw edema at 1 h / Percent inhibition of paw edema at 2 h / Percent inhibition of paw edema at 3 h / Percent inhibition of paw edema at 4 h: vs control; for Inflammation at 2 h (paw thickness), Mean ± SEM / Percent inhibition of paw edema at 2 h: 2 h after carrageenan; for Inflammation at 3 h (paw thickness), Mean ± SEM / Percent inhibition of paw edema at 3 h: 3 h after carrageenan; for Inflammation at 4 h (paw thickness), Mean ± SEM / Percent inhibition of paw edema at 4 h: 4 h after carrageenan
Protocol: Anti-inflammatory activity of mutual prodrugs 5a–c was determined by following the already reported method by slight modification against carrageenan induced paw edema in mice. The animals were distributed into 5 groups each having five mice. The mice used for the experiment were kept on fasting for 24 h before the starting of experiment. […] The paw volume was measured at 0, 1, 2, 3 and 4 h after the administration of carrageenan by using vernier caliper. (1) Percent inhibition (%) = 100 (1−X/Y) where X = mean increase in paw thickness of treated mice; and Y = mean increase in paw thickness of control mice.

[4] = tested on: yeast induced pyrexia in mice; assay: Yeast induced pyrexia in mice; type: in vivo; conditions: for Temperature 1 h, Mean ± SEM / Temperature 2 h, Mean ± SEM / Temperature 3 h, Mean ± SEM: 20 mg/kg p.o.; for Temperature 1 h, Mean ± SEM: 1 h after drug administration; for Temperature 2 h, Mean ± SEM: 2 h after drug administration; for Temperature 3 h, Mean ± SEM: 3 h after drug administration; for Temperature After 24 h of Induction, Mean ± SEM: rectal temperature after yeast, before drug; for Temperature before Induction, Mean ± SEM: rectal temperature, baseline before yeast
Protocol: Antipyretic activity of prodrugs 5a–c was evaluated against yeast induced pyrexia in mice according to Sakande et al., reported method. Aqueous suspension of brewer′s yeast (20% in distilled water) […] was given subcutaneous to mice. […] Only, those animals were further used in which the pyrexia had been induced. The animals were divided in to five groups having five mice in each group. […] Then animals were treated as described earlier with control, standard and prodrugs 5a–c. Rectal temperature of animals was recorded at 1, 2, 3 and 4 h after drug administration.

[5] = tested on: egg albumin induced paw edema in mice; assay: Egg albumin induced inflammation (paw edema) in mice; type: in vivo; conditions: 20 mg/kg p.o.
Protocol: Anti-inflammatory potential of synthesized prodrugs 5a–c against egg albumin induced inflammation was also determined for further verification by following the previously reported method. The animals were divided into five groups, each group having five animals. The animals were kept on fasting for 24 h before the beginning of the experiment.

[6] = tested on: gastrointestinal mucosa (stomach); assay: Ulcerogenic studies, fasted rat model; type: in vivo; conditions: 20 mg/kg p.o., 4 h after dose, UI = area of ulcer/area of stomach × 100
Protocol: The animals were categorized into 6 groups, each has 5 animals. Group 1 was control and given 0.5% carboxymethyl cellulose (CMC) suspension. […] The prodrugs 5a–c (20 mg/kg p.o.) were given to Groups III–V, respectively. Food and water was removed from animal cages 24 h before starting the experiments. After 4 h administration of dose, the animal′s stomach was removed by sacrificing the animal. Stomach was kept on saline soaked filter paper for inspection. The stomach was opened along larger curvature and cleaned with distilled water. The mucous was removed and the area of ulcers and stomachs were noted.
Following formula was used for calculation of Ulcer index (UI); (2) UI=Area of Ulcer/Area of Stomach×100

[7] = tested on: formalin induced licking in mice; assay: Formalin induced licking in mice; type: in vivo; conditions: 20 mg/kg p.o.; for Lickings Time, Mean ± SEM: formalin 2.5%, observed 30 min; for Percentage inhibition of licking time: vs control
Excerpt: Formalin induced licking in mice was also used to determine analgesic activity of prodrugs 5a–c for further verification. The animals were distributed in to five groups having five mice in each group.

SMILES | No. of Writhing, Mean ± SEM [2] | Percentage inhibition of writhing [2] | Inflammation at 1 h (paw thickness), Mean ± SEM [3] | Percent inhibition of paw edema at 1 h [3] | Inflammation at 2 h (paw thickness), Mean ± SEM [3] | Percent inhibition of paw edema at 2 h [3] | Inflammation at 3 h (paw thickness), Mean ± SEM [3] | Percent inhibition of paw edema at 3 h [3] | Inflammation at 4 h (paw thickness), Mean ± SEM [3] | Percent inhibition of paw edema at 4 h [3] | Temperature 1 h, Mean ± SEM [4] | Temperature 2 h, Mean ± SEM [4] | Temperature 3 h, Mean ± SEM [4] | Temperature After 24 h of Induction, Mean ± SEM [4] | Temperature before Induction, Mean ± SEM [4] | Lickings Time, Mean ± SEM [7] | Percentage inhibition of licking time [7] | further results
CC(C)Cc1ccc([C@H](C)C(=O)OCC(=O)Oc2ccc3ccc(=O)oc3c2)cc1 [5c, (S)-((2-oxo-2H-chromen-7-yloxy)carbonyl) methyl 2-(4-isobutylphenyl) propanoate] | 18.25 ± 0.85 | 50.94% | 4.22 ± 0.04 mm | 4.09% | 4.05 ± 0.02 mm | 12.14% | 3.80 ± 0.04 mm | 21.64% | 3.60 ± 0.04 mm | 28.99% | 98.35 ± 0.05 °F | 97.65 ± 0.15 °F | 97.25 ± 0.08 ^ns °F | 102.1 ± 0.96 °F | 98.95 ± 0.04 °F | 1.31 ± 0.07 | 53.71% | Inhibition of platelet aggregation [1]: most potent inhibitory effects; Inflammation at 0 h (paw thickness), Mean ± SEM ([3]; 0 h after carrageenan): 4.32 ± 0.04 mm; Inflammation at 0 h (paw thickness), Mean ± SEM ([5]; 0 h after egg albumin): 4.60 ± 0.33 mm; Inflammation at 1 h (paw thickness), Mean ± SEM ([5]; 1 h after egg albumin): 3.12 ± 0.06 mm; Percent inhibition of paw edema at 1 h ([5]; 1 h after egg albumin, vs control): 29.09%; Inflammation at 2 h (paw thickness), Mean ± SEM ([5]; 2 h after egg albumin): 3.02 ± 0.06 mm; Percent inhibition of paw edema at 2 h ([5]; 2 h after egg albumin, vs control): 37.08%; Inflammation at 3 h (paw thickness), Mean ± SEM ([5]; 3 h after egg albumin): 2.92 ± 0.07 mm; Percent inhibition of paw edema at 3 h ([5]; 3 h after egg albumin, vs control): 44.06%; Ulcer Index (Mean±SEM) [6]: 1.61 ± 0.58
CC(C)Cc1ccc([C@H](C)C(=O)O)cc1 [Dexibuprofen, S-(+)-ibuprofen, reference compound] | 17.06 ± 1.08 | 54.12% | 4.35 ± 0.06 mm | 1.1% | 4.07 ± 0.02 mm | 11.71% | 3.90 ± 0.04 mm | 19.58% | 3.75 ± 0.06 mm | 26.03% | 95.25 ± 0.37 ^ns °F | 95.02 ± 0.35 °F | 94.97 ± 0.31 °F | 95.77 ± 0.26 °F | 95.20 ± 0.21 °F | 1.60 ± 0.22 | 43.46% | –
